Experiments:
[1] = test system: human PBMCs; assay: Human PBMC cytokine response assay (IFN-γ and IFN-α in cell-free medium by ELISA), with or without cPLGA; assay type: cell-based;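 as to IFN-α (pg/ml) mean: 20 µg/mL compound for 24 hours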;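 as to IFN-γ (pg/ml) mean: 20 µg/mL compound for 24 hours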
[2] = test system: PBMCs; assay: Human PBMC proliferation assay (3H-thymidine incorporation); assay type: cell-based; conditions: Experiment A; for mean cpm: 2 μg/ml
[3] = test system: CD19+ B cells; assay: Human B cell proliferation assay (3H-thymidine incorporation); conditions: 2 μg/ml
[4] = Table 24, mean of donors 28234-28237
[5] = Table 25, mean of donors 28250-28253
[6] = donor 28066, 20 ug/ml, 24 h, + PLGA = premixed with 100 μg/ml cPLGA
[7] = donor 28067, 20 ug/ml, 24 h, + PLGA = premixed with 100 μg/ml cPLGA
[8] = donor 28068, 20 ug/ml, 24 h, + PLGA = premixed with 100 μg/ml cPLGA
[9] = mean of donors 28065-28068, 20 ug/ml, 24 h, + PLGA = premixed with 100 μg/ml cPLGA
[10] = mean of donors 28185-28188, Table 15
[11] = B cells, Donor 146, Experiment A
[12] = B cells, Donor 147, Experiment A

5′-TCGTCGA-3′-HEG-5′-TCGTCGA-3′-HEG-5′-TCGTCGA-3′ [Compound C-21]
IFN-α ([1]; Table 9, donor 28089): 56 pg/mL | IFN-γ ([1]; Table 9, donor 28089): 61 pg/mL | IFN-α ([1]; Table 9, donor 28090): 157 pg/mL | IFN-γ ([1]; Table 9, donor 28090): 68 pg/mL | IFN-α ([1]; Table 9, donor 28098): 286 pg/mL | IFN-γ ([1]; Table 9, donor 28098): 218 pg/mL | IFN-α ([1]; Table 9, donor 28099): 466 pg/mL | IFN-γ ([1]; Table 9, donor 28099): 124 pg/mL | IFN-α mean ([1]; Table 9, mean of donors): 241 pg/mL | IFN-γ mean ([1]; Table 9, mean of donors): 118 pg/mL | IFN-α ([1]; Table 10, donor 28042): 57 pg/mL | IFN-γ ([1]; Table 10, donor 28042): 790 pg/mL | IFN-α ([1]; Table 10, donor 28043): 72 pg/mL | IFN-γ ([1]; Table 10, donor 28043): 1519 pg/mL | IFN-α ([1]; Table 10, donor 28044): 79 pg/mL | IFN-γ ([1]; Table 10, donor 28044): 1198 pg/mL | IFN-α ([1]; Table 10, donor 28045): 15 pg/mL | IFN-γ ([1]; Table 10, donor 28045): 177 pg/mL | IFN-α mean ([1]; Table 10, mean of donors): 56 pg/mL | IFN-γ mean ([1]; Table 10, mean of donors): 921 pg/mL | IFN-α ([1]; Table 11, donor 28042): 146 pg/mL | IFN-γ ([1]; Table 11, donor 28042): 572 pg/mL | IFN-α ([1]; Table 11, donor 28043): 94 pg/mL | IFN-γ ([1]; Table 11, donor 28043): 460 pg/mL | IFN-α ([1]; Table 11, donor 28044): 191 pg/mL | IFN-γ ([1]; Table 11, donor 28044): 4000 pg/mL | IFN-α ([1]; Table 11, donor 28045): 349 pg/mL | IFN-γ ([1]; Table 11, donor 28045): 1644 pg/mL | IFN-α mean ([1]; Table 11, mean of donors): 195 pg/mL | IFN-γ mean ([1]; Table 11, mean of donors): 1669 pg/mL | IFN-α ([1]; Table 24, donor 28234): 16 pg/mL | IFN-γ ([1]; Table 24, donor 28234): 4 pg/mL | IFN-α ([1]; Table 24, donor 28235): 16 pg/mL | IFN-γ ([1]; Table 24, donor 28235): 107 pg/mL | IFN-α ([1]; Table 24, donor 28236): 73 pg/mL | IFN-γ ([1]; Table 24, donor 28236): 308 pg/mL | IFN-α ([1]; Table 24, donor 28237): 678 pg/mL | IFN-γ ([1]; Table 24, donor 28237): 1645 pg/mL | IFN-α mean [1, 4]: 196 pg/mL | IFN-γ mean [1, 4]: 516 pg/mL | IFN-a ([1]; Table 25, donor 28250): 31 pg/mL | IFN-g ([1]; Table 25, donor 28250, polynucleotides/spacers at amounts equivalent to the CIC, spacers alone 9 uM): 122 pg/mL | IFN-a ([1]; Table 25, donor 28251): 69 pg/mL | IFN-g ([1]; Table 25, donor 28251): 51 pg/mL | IFN-a ([1]; Table 25, donor 28252): 41 pg/mL | IFN-g ([1]; Table 25, donor 28252): 155 pg/mL | IFN-a ([1]; Table 25, donor 28253): 264 pg/mL | IFN-g ([1]; Table 25, donor 28253): 203 pg/mL | IFN-a mean [1, 5]: 101 pg/mL | IFN-g mean [1, 5]: 133 pg/mL | IFN-γ (pg/ml) 28065 ([1]; donor 28065 (high background), 20 ug/ml, 24 h, + PLGA = premixed with 100 μg/ml cPLGA, 1000 = outside assay limits): 653 pg/mL | IFN-α (pg/ml) 28065 ([1]; donor 28065, 20 ug/ml, 24 h, + PLGA = premixed with 100 μg/ml cPLGA): 227 pg/mL | IFN-α (pg/ml) 28066 [1, 6]: 24 pg/mL | IFN-γ (pg/ml) 28066 [1, 6]: 16 pg/mL | IFN-α (pg/ml) 28067 [1, 7]: 183 pg/mL | IFN-γ (pg/ml) 28067 [1, 7]: 24 pg/mL | IFN-α (pg/ml) 28068 [1, 8]: 769 pg/mL | IFN-γ (pg/ml) 28068 [1, 8]: 960 pg/mL | IFN-a ([1]; donor 28185, Table 15): 443 pg/mL | IFN-g ([1]; donor 28185, Table 15): 244 pg/mL | IFN-a ([1]; donor 28186, Table 15): 64 pg/mL | IFN-g ([1]; donor 28186, Table 15): 37 pg/mL | IFN-a ([1]; donor 28187, Table 15): 1 pg/mL | IFN-g ([1]; donor 28187, Table 15): 125 pg/mL | IFN-a ([1]; donor 28188, Table 15): 4 pg/mL | IFN-g ([1]; donor 28188, Table 15): 7 pg/mL | IFN-α (pg/ml) mean [1, 9]: 300 pg/mL | IFN-γ (pg/ml) mean [1, 9]: 413 pg/mL | IFN-a (pg/ml) mean [1, 10]: 128 pg/mL | IFN-g (pg/ml) mean [1, 10]: 103 pg/mL | IFN-a (pg/ml) ×2 ([1]; mean ×2, Table 15): 256 pg/mL | IFN-g (pg/ml) ×4 ([1]; mean ×4, Table 15): 413 pg/mL | immunomodulatory activity (IFN-γ / IFN-α secretion), in words ([1]; used alone (no cPLGA)): more active than other CG-containing CICs | cpm1 ([2]; Donor 146, 2 μg/ml): 30338 cpm | cpm2 ([2]; Donor 146, 2 μg/ml): 22685 cpm | cpm3 ([2]; Donor 146, 2 μg/ml): 22383 cpm | mean cpm ([2]; Donor 146 mean): 25135 cpm | cpm1 ([2]; Donor 147, 2 μg/ml): 28819 cpm | cpm2 ([2]; Donor 147, 2 μg/ml): 530 cpm | cpm3 ([2]; Donor 147, 2 μg/ml): 37088 cpm | mean cpm ([2]; Donor 147 mean): 22146 cpm | mean of both ([2]; mean of Donors 146 and 147, 2 μg/ml): 23641 cpm | B cell proliferation, in words ([3]; 48 h plus 8 h 3H-thymidine pulse): cause B cells to proliferate | cpm1 [3, 11]: 28467 cpm | cpm2 [3, 11]: 16074 cpm | cpm3 [3, 11]: 19258 cpm | mean cpm ([3]; B cells, Donor 146 mean, Experiment A): 21266 cpm | cpm1 [3, 12]: 17604 cpm | cpm2 [3, 12]: 18851 cpm | cpm3 [3, 12]: 19887 cpm | mean cpm ([3]; B cells, Donor 147 mean, Experiment A): 18781 cpm | mean of both ([3]; B cells, mean of Donors 146 and 147, Experiment A): 20024 cpm
